According to patent US9957270B2, “Fused pyrimidine-based hydroxamate derivatives” (Agency for Science, Technology and Research, priority 2014, dated 2018):
Read-outs that look alike come from different tables or passages of the source.

Tests used:
[1] = target: T1, p110α(E545K)/p85α (Homo sapiens, UniProt P42336, E545K); assay: Kinase enzyme assay (ADP-Glo), PI3Kα (E545K); type: biochemical; conditions: read-out: In Vitro Enzymatic IC50 PI3Kα (E545K)
T1 construct: purchased SignalChem P27-15H

[2] = test system: 4T1; assay: cells; conditions: Mus musculus, 4T1, read-out: In Vitro Cellular IC50 4T1
Experimental: (§1) Cells were cultivated at 37° C., 5% CO2 in media containing 10% FBS and 2 mM glutamine Cells were routinely monitored with MycoAlert™ PLUS Mycoplasma Detection Kit (Lonza Walkersville, Inc.) to make sure they were mycoplasma free. Antibiotics (100 U/mL of penicillin and 100 μg/mL of streptomycin) were only added to the media used for compound dilution and cells in 96-well assay plates.
(§2) For a typical screening experiment, cells (100 μL/well) are inoculated into 96 well microtiter plates at plating densities ranging from 2,000 to 30,000 cells/well depending on the doubling time of individual cell lines and assay linearity. […] Suspension cells are treated with test compounds immediately after cell inoculation.
(§3) Test compounds are serially diluted (3-fold or 4-fold, 8-concentration) using the same media and added to the plates (15 to 25 μL/well). After 72 h of cultivation, the plates are assayed for cell cytotoxicity/viability by using the following two methods.
(§4) Cells in plates are fixed with cold trichloroacetic acid (TCA) (50% w/v in DI water, 1/4 volume of the medium in each well), and incubated at 4° C. for 1 h (adherent cells) or 2 h (suspension cells). The plates are washed 5 times (tap water×3, DI water×2) and air-dried. SRB solution 0.4% (w/v) in 1% acetic acid is added to each well (60 μL/well) and the plates are incubated at room temperature for 30 min, then washed with 1% acetic acid solution 4 times, and air-dried.
(§5) The plates are added CellTiter-Glo® Reagent (95 μL/well) and read the luminescence on a BioTek H4 reader per manufacture's protocol.
(§6) The raw data are processed using BioTek's Software Gen5 (v2.03.01) to generate inhibitory IC50 values.

[3] = test system: COLO 205; assay: cells; conditions: Homo sapiens
Experimental: as §1, §2, §3, §4, §5, §6

[4] = test system: HCT 116; assay: cells; conditions: Homo sapiens
Experimental: as §1, §2, §3, §4, §5, §6

[5] = test system: MV-4-11; assay: cells; conditions: Homo sapiens
Experimental: as §1, §2, §3, §4, §5, §6

[6] = test system: MCF7; assay: Anti-proliferative assay (cellular IC50), MCF7; conditions: Homo sapiens
[7] = test system: A375; assay: Anti-proliferative assay (cellular IC50), A375; conditions: Homo sapiens, A-375, read-out: In Vitro Cellular IC50 A375
Experimental: as §1, §2, §3, §4, §5, §6

[8] = test system: PC-3; assay: Anti-proliferative assay (cellular IC50), PC-3; conditions: Homo sapiens
[9] = test system: ACHN; assay: Anti-proliferative assay (cellular IC50), ACHN; conditions: Homo sapiens, read-out: In Vitro Cellular IC50 ACHN
Experimental: as §1, §2, §3, §4, §5, §6

[10] = test system: BT474; assay: Anti-proliferative assay (cellular IC50), BT474; conditions: Homo sapiens, BT-474, read-out: In Vitro Cellular IC50 BT474
Experimental: as §1, §2, §3, §4, §5, §6

[11] = test system: HepG2; assay: Anti-proliferative assay (cellular IC50), HepG2; conditions: Homo sapiens
Experimental: as §1, §2, §3, §4, §5, §6

[12] = test system: HL-60; assay: Anti-proliferative assay (cellular IC50), HL-60; conditions: Homo sapiens, HL-60, read-out: In Vitro Cellular IC50 HL-60
Experimental: as §1, §2, §3, §4, §5, §6

[13] = test system: K-562; assay: Anti-proliferative assay (cellular IC50), K-562; conditions: Homo sapiens
Experimental: as §1, §2, §3, §4, §5, §6

[14] = test system: Ramos; assay: Anti-proliferative assay (cellular IC50), Ramos; conditions: Homo sapiens, read-out: In Vitro Cellular IC50 Ramos
Experimental: as §1, §2, §3, §4, §5, §6

[15] = test system: U87 MG; assay: Anti-proliferative assay (cellular IC50), U87 MG; conditions: Homo sapiens, U-87 MG, read-out: In Vitro Cellular IC50 U87 MG
Experimental: as §1, §2, §3, §4, §5, §6

[16] = test system: MOLT-4; assay: Anti-proliferative assay (cellular IC50), MOLT-4; conditions: Homo sapiens
Experimental: as §1, §2, §3, §4, §5, §6

[17] = test system: BxPC-3; assay: Anti-proliferative assay (cellular IC50), BxPC-3; conditions: Homo sapiens, BXPC-3, read-out: In Vitro Cellular IC50 BxPC-3
Experimental: as §1, §2, §3, §4, §5, §6

[18] = test system: PANC-1; assay: Anti-proliferative assay (cellular IC50), PANC-1; conditions: Homo sapiens, PANC-1, read-out: In Vitro Cellular IC50 PANC-1
Experimental: as §1, §2, §3, §4, §5, §6

[19] = test system: SK-HEP1; assay: Anti-proliferative assay (cellular IC50), SK-HEP1; conditions: Homo sapiens, SK-HEP1, read-out: In Vitro Cellular IC50 SK-HEP1
Experimental: as §1, §2, §3, §4, §5, §6

[20] = test system: SUP-B15; assay: Anti-proliferative assay (cellular IC50), SUP-B15; conditions: Homo sapiens, SUP-B15, read-out: In Vitro Cellular IC50 SUP-B15
Experimental: as §1, §2, §3, §4, §5, §6

[21] = test system: NCI-H522; assay: Anti-proliferative assay (cellular IC50), NCI-H522; conditions: Homo sapiens, NCI-H522, read-out: In Vitro Cellular IC50 NCI-H522
Experimental: as §1, §2, §3, §4, §5, §6

[22] = test system: Pfeiffer; assay: Anti-proliferative assay (cellular IC50), Pfeiffer; conditions: Homo sapiens, read-out: In Vitro Cellular IC50 Pfeiffer
Experimental: as §1, §2, §3, §4, §5, §6

[23] = test system: RPMI-8226; assay: Anti-proliferative assay (cellular IC50), RPMI-8226; conditions: Homo sapiens, RPMI-8226, read-out: In Vitro Cellular IC50 RPMI-8226
Experimental: as §1, §2, §3, §4, §5, §6

[24] = test system: MDA-MB-231; assay: Anti-proliferative assay (cellular IC50), MDA-MB-231; conditions: Homo sapiens, MDA-MB-231, read-out: In Vitro Cellular IC50 MDA-MB-231
Experimental: as §1, §2, §3, §4, §5, §6

[25] = test system: MDA-MB-436; assay: Anti-proliferative assay (cellular IC50), MDA-MB-436; conditions: Homo sapiens, MDA-MB-436, read-out: In Vitro Cellular IC50 MDA-MB-436
Experimental: as §1, §2, §3, §4, §5, §6

[26] = test system: MDA-MB-468; assay: Anti-proliferative assay (cellular IC50), MDA-MB-468; conditions: Homo sapiens, MDA-MB-468, read-out: In Vitro Cellular IC50 MDA-MB-468
Experimental: as §1, §2, §3, §4, §5, §6

[27] = COLO 205, 72 h, read-out: In Vitro Cellular IC50 COLO 205
[28] = COLO 205, read-out: In Vitro Cellular IC50 COLO 205
[29] = HCT-116, 72 h, read-out: In Vitro Cellular IC50 HCT 116
[30] = HCT-116, read-out: In Vitro Cellular IC50 HCT 116
[31] = MV4-11, 72 h, read-out: In Vitro Cellular IC50 MV-4-11
[32] = MV4-11, read-out: In Vitro Cellular IC50 MV-4-11
[33] = MCF7, 72 h, read-out: In Vitro Cellular IC50 MCF7
[34] = MCF7, read-out: In Vitro Cellular IC50 MCF7
[35] = PC-3, 72 h, read-out: In Vitro Cellular IC50 PC-3
[36] = PC-3, read-out: In Vitro Cellular IC50 PC-3
[37] = HepG2, 72 h, read-out: In Vitro Cellular IC50 HepG2
[38] = HepG2, read-out: In Vitro Cellular IC50 HepG2
[39] = K562, 72 h, read-out: In Vitro Cellular IC50 K-562
[40] = K562, read-out: In Vitro Cellular IC50 K-562
[41] = MOLT-4, 72 h, read-out: In Vitro Cellular IC50 MOLT-4
[42] = MOLT-4, read-out: In Vitro Cellular IC50 MOLT-4

T1 sequence (P42336 whole entry E545K): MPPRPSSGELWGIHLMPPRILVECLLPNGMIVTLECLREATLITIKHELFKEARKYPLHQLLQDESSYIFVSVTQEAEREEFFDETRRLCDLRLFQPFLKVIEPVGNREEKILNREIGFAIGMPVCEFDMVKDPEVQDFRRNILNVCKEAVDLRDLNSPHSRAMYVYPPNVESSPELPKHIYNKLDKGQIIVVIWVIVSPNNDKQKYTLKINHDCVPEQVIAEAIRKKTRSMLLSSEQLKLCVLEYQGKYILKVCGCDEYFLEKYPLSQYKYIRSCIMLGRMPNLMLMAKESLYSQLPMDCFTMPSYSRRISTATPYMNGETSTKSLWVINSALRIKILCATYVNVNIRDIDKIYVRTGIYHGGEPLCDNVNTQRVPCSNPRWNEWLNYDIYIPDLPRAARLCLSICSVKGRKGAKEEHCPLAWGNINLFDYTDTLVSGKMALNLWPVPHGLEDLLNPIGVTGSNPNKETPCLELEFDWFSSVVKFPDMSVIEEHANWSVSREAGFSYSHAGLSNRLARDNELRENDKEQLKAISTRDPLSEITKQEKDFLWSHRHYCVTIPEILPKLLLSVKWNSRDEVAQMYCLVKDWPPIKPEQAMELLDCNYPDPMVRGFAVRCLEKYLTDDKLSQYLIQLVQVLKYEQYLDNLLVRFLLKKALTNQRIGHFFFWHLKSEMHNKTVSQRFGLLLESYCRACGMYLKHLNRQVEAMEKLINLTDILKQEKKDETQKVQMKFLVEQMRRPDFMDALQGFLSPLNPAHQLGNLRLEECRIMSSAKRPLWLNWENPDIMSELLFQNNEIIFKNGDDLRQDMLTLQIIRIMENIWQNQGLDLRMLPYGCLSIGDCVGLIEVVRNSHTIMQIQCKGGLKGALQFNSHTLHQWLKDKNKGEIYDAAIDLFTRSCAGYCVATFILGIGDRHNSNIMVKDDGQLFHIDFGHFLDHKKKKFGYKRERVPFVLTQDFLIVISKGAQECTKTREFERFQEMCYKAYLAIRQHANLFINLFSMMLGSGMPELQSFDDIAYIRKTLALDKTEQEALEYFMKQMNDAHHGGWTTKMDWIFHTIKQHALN
T1 sequence (P27986 whole entry partner): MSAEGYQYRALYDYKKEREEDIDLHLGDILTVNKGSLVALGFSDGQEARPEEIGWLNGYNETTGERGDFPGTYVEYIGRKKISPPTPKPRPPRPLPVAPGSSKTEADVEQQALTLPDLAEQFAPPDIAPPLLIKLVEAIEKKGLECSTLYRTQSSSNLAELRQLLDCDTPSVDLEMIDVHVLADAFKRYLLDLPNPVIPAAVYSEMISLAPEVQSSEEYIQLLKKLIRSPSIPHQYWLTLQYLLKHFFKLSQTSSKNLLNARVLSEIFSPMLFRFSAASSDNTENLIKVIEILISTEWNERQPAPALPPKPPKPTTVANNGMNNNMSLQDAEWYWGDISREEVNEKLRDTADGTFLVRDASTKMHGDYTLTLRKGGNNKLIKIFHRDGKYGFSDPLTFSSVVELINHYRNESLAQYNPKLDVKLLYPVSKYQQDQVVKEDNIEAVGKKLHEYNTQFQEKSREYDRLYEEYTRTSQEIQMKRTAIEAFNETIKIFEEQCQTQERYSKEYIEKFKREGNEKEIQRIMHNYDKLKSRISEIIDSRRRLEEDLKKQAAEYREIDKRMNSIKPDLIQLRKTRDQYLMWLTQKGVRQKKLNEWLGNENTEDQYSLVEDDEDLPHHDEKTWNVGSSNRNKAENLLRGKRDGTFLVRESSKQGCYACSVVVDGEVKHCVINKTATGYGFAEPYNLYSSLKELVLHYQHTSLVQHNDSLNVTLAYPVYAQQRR

In the case of `CCn1c(CN(C)Cc2ccc(C(=O)NO)cc2)nc2c(N3CCOCC3)nc(-c3cnc(N)nc3)nc21` [compound 7], the IC50 [1] is reported as 0.01 to 0.1 µM, the IC50 [2] is reported as 2 to 10 µM and the IC50 [3, 27] is reported as 0.5 to 2 µM. For the same molecule, the IC50 [3, 28] was 0.5 to 2 µM, the IC50 [4, 29] was 0.5 to 2 µM and the IC50 [4, 30] was 0.5 to 2 µM. It also gave an IC50 [5, 31] of 0.5 to 2 µM, an IC50 [5, 32] of 0.5 to 2 µM and an IC50 [6, 33] of less than 0.5 µM. For the same molecule, the IC50 [6, 34] was less than 0.5 µM, the IC50 [7] was 2 to 10 µM and the IC50 [8, 35] was 0.5 to 2 µM. It also gave an IC50 [8, 36] of 0.5 to 2 µM, an IC50 [9] of 2 to 10 µM and an IC50 [10] of less than 0.5 µM. For the same molecule, the IC50 [11, 37] was 0.5 to 2 µM, the IC50 [11, 38] was 0.5 to 2 µM and the IC50 [12] was 0.5 to 2 µM. The IC50 [13, 39] was 0.5 to 2 µM, the IC50 [13, 40] was 0.5 to 2 µM and the IC50 [14] was 0.5 to 2 µM. The IC50 [15] was 2 to 10 µM, the IC50 [16, 41] was 0.5 to 2 µM and the IC50 [16, 42] was 0.5 to 2 µM. For the same molecule, the IC50 [17] was 0.5 to 2 µM, the IC50 [18] was 2 to 10 µM and the IC50 [19] was 0.5 to 2 µM. For the same molecule, the IC50 [20] was less than 0.5 µM, the IC50 [21] was 2 to 10 µM and the IC50 [22] was less than 0.5 µM. It also gave an IC50 [23] of 0.5 to 2 µM, an IC50 [24] of 2 to 10 µM and an IC50 [25] of 2 to 10 µM. For the same molecule, the IC50 [26] was less than 0.5 µM.

`CC(C)n1cnc2c(-c3cccc(OCCCC(=O)NO)c3)nc(N3CCOCC3)nc21` [compound 1] showed an IC50 [1] of 1 to 10 µM, an IC50 [2] of 0.5 to 2 µM and an IC50 [3, 27] of 0.5 to 2 µM. It also gave an IC50 [3, 28] of 0.5 to 2 µM, an IC50 [4, 29] of less than 0.5 µM and an IC50 [4, 30] of less than 0.5 µM. For the same molecule, the IC50 [5, 31] was less than 0.5 µM, the IC50 [5, 32] was less than 0.5 µM and the IC50 [6, 33] was 0.5 to 2 µM. The IC50 [6, 34] was 0.5 to 2 µM, the IC50 [7] was 0.5 to 2 µM and the IC50 [8, 35] was 0.5 to 2 µM. For the same molecule, the IC50 [8, 36] was 0.5 to 2 µM, the IC50 [9] was 0.5 to 2 µM and the IC50 [10] was 0.5 to 2 µM. It also gave an IC50 [11, 37] of 0.5 to 2 µM, an IC50 [11, 38] of 0.5 to 2 µM and an IC50 [12] of less than 0.5 µM. The IC50 [13, 39] was 0.5 to 2 µM, the IC50 [13, 40] was 0.5 to 2 µM and the IC50 [14] was less than 0.5 µM. The IC50 [15] was 0.5 to 2 µM, the IC50 [16, 41] was less than 0.5 µM and the IC50 [16, 42] was less than 0.5 µM. The IC50 [17] was 0.5 to 2 µM, the IC50 [18] was 0.5 to 2 µM and the IC50 [19] was 0.5 to 2 µM. For the same molecule, the IC50 [20] was less than 0.5 µM, the IC50 [21] was 0.5 to 2 µM and the IC50 [22] was less than 0.5 µM. It also gave an IC50 [23] of less than 0.5 µM, an IC50 [24] of 0.5 to 2 µM and an IC50 [25] of 0.5 to 2 µM. The IC50 [26] was 0.5 to 2 µM.

Work on `CS(=O)(=O)N1CCN(Cc2cc3nc(-c4cccc5[nH]ncc45)nc(N4CCOCC4)c3s2)CC1` [GDC-0941, reference compound] yielded an IC50 [2] of 2 to 10 µM, an IC50 [3, 27] of 0.5 to 2 µM and an IC50 [3, 28] of 0.5 to 2 µM. For the same molecule, the IC50 [4, 29] was 0.5 to 2 µM, the IC50 [4, 30] was 2 to 10 µM and the IC50 [5, 31] was 0.5 to 2 µM. The IC50 [5, 32] was 0.5 to 2 µM, the IC50 [6, 33] was less than 0.5 µM and the IC50 [6, 34] was less than 0.5 µM. It also gave an IC50 [7] of 0.5 to 2 µM, an IC50 [8, 35] of 0.5 to 2 µM and an IC50 [8, 36] of 0.5 to 2 µM. For the same molecule, the IC50 [9] was 0.5 to 2 µM, the IC50 [10] was less than 0.5 µM and the IC50 [11, 37] was greater than 10 µM. The IC50 [11, 38] was greater than 10 µM, the IC50 [12] was 0.5 to 2 µM and the IC50 [13, 39] was greater than 10 µM. For the same molecule, the IC50 [13, 40] was greater than 10 µM, the IC50 [14] was 2 to 10 µM and the IC50 [15] was 2 to 10 µM. It also gave an IC50 [16, 41] of less than 0.5 µM, an IC50 [16, 42] of less than 0.5 µM and an IC50 [17] of 0.5 to 2 µM. It also gave an IC50 [18] of 0.5 to 2 µM, an IC50 [19] of 2 to 10 µM and an IC50 [20] of 2 to 10 µM. The IC50 [21] was greater than 10 µM, the IC50 [22] was less than 0.5 µM and the IC50 [23] was 2 to 10 µM. It also gave an IC50 [24] greater than 10 µM, an IC50 [25] of 0.5 to 2 µM and an IC50 [26] of 2 to 10 µM.
